{"source": "patent US20160115540A1", "about": "“PRODRUGS AND DRUGS” (Biogen MA Inc., priority 2013, published 2016)", "system": "brain", "test": "Transcriptional profiling, chronic dosing, EAE mice: brain", "format": "in vivo", "text": "EAE induction is generally performed by immunization with brain extracts, CNS proteins (such as myelin basic protein), or peptides from such protein emulsified in an adjuvant such as complete Freund's adjuvant, e.g., as described in Linker et al., Brain. 2011 March 134(Pt3): 678-92. […] FIG. 17 depicts exemplary immunophenotyping panels used to analyze various immune cell populations (e.g., T cells, T regulatory cells, NK cells, B cells, myeloid cells). […] The number of independent mice whose tissues were harvested for transcript profiling studies and whose data passed QC is shown in TABLE 15. Animals were exposed to CO2 and whole blood collected via cardiac puncture. Two 100 μl aliquots of whole blood were collected in 1.5 mL microcentrifuge tubes and snap frozen in liquid nitrogen. Peripheral (liver, spleen, kidney and jejunum) and CNS brain (cerebellum, hippocampus, striatum and cortex) tissues were harvested and snap frozen in liquid nitrogen, with special care taken to collect tissues of similar size and from the same location. All samples were stored at -80° C. until RNA extraction was conducted. For RNA preparation, frozen tissues were placed in 2 mL RNAse-free 96-well blocks with 1.5 mL QIAzol Lysis Reagent (QIAgen) and a 3.2 mm stainless steel bead (BioSpec Products, Bartlesville, Okla.). Tissues were disrupted for four cycles of 45 seconds in a Mini-Beadbeater (Biospec Products). RNA was extracted in chloroform and the aqueous phase was mixed with an equal volume of 70% ethanol. Extracted RNA was applied to RNeasy 96 plates and purified by the spin method according to the manufacturer's protocol (RNeasy 96 Universal Tissue Protocol, QIAgen, Hilden Germany). […] Washing and staining of the hybridized arrays were completed as described in the GeneChip Expression analysis technical manual for HT plate arrays using the Genechip® Array Station (Affymetrix, Santa Clara, Calif.) with modifications as described in […] et al. The processed GeneChip® plate arrays were scanned using GeneTitan scanner (Affymetrix, Santa Clara, Calif.). Affymetrix scans were subject to quality control (QC) measures. These tests included a visual inspection of the distribution of raw signal intensities and an assessment of RNA degradation, relative log expression (RLE), and normalized unscaled standard error (NUSE). All sample scans that passed these QC metrics were included in the analysis. All CEL files were subjected to GC-content-based Robust Multi-array Average (GCRMA) normalization (version 2.20.0) (Irizarry R A, et al. Nucleic Acids Res 2003; 31:e15; Li C, et al. Genome Biol 2001; 2:[…]0032). […] Stat Appl Genet Mol Biol 2004; 3:Article3). […] Springer Science+Business Media 2005). Changes in gene expression were studied by applying a linear modeling approach to fit gene expression levels according to the defined groups of samples (e.g. DMF-, MMF-, and Vehicle-treated animals) and Bayesian posterior error analysis as implemented by Smyth (Smyth G K. Stat Appl Genet Mol Biol 2004; 3:Article3). The comparisons considered included: DMF-vs-MMF, DMF-vs-Vehicle, MMF-vs-Vehicle, and Vehicle-vs-Naïve.", "note": "Where a name gives a salt, the structure may show the parent alone."}
{"smiles": "COC(=O)/C=C/C(=O)OC", "note": "[DMF, dimethyl fumarate]", "values": [{"measurement": "Number of differentially expressed genes identified: Brain", "setting": "100 mpk DMF-vs-90 mpk MMF, 7 h after last dosing", "value": 31}, {"measurement": "Number of differentially expressed genes identified: Brain", "setting": "100 mpk DMF-vs-90 mpk MMF, 12 h after last dosing", "value": 0}, {"measurement": "Number of differentially expressed genes identified: Brain", "setting": "100 mpk DMF-vs-Vehicle, 7 h after last dosing", "value": 6}, {"measurement": "Number of differentially expressed genes identified: Brain", "setting": "100 mpk DMF-vs-Vehicle, 12 h after last dosing", "value": 0}]}
{"smiles": "COC(=O)/C=C/C(=O)O", "note": "[MMF, monomethyl fumarate]", "values": [{"measurement": "Number of differentially expressed genes identified: Brain", "setting": "90 mpk MMF-vs-Vehicle, 7 h after last dosing", "value": 158}, {"measurement": "Number of differentially expressed genes identified: Brain", "setting": "90 mpk MMF-vs-Vehicle, 12 h after last dosing", "value": 0}]}
